Measurements from PubChem BioAssay (NCI).
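Grown in 96-well plates, cells were treated for 48 hours with each compound at five concentrations. Insufficient inhibition: endpoint recorded as highest concentration tested. TGI: total growth inhibition.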

Experiments:
Assay in all cases: inhibition of tumour cell growth, NCI panel, 48 h
[1] = system: SF-268 CNS
[2] = system: UACC-257 melanoma
[3] = system: SN12C renal
[4] = system: DMS 114 small cell lung
[5] = system: ACHN renal
[6] = system: A549 NSCLC
[7] = system: UO-31 renal
[8] = system: MDA-MB-231 breast
[9] = system: SF-295 CNS
[10] = system: MOLT-4 leukemia
[11] = system: CAKI-1 renal
[12] = system: LOX IMVI melanoma
[13] = system: T-47D breast
[14] = system: OVCAR-4 ovarian
[15] = system: A498 renal
[16] = system: RXF-631 renal
[17] = system: NCI-H460 lung
[18] = system: MALME-3M melanoma
[19] = system: EKVX NSCLC
[20] = system: SK-MEL-28 melanoma
[21] = system: UACC-62 melanoma
[22] = system: IGROV1 ovarian
[23] = system: DMS 273 small cell lung
[24] = system: RPMI-8226 leukemia
[25] = system: SNB-75 CNS
[26] = system: SF-539 CNS
[27] = system: K-562 leukemia
[28] = system: DU-145 prostate
[29] = system: MDA-N
[30] = system: PC-3 prostate
[31] = system: MCF7 breast
[32] = system: SNB-19 CNS
[33] = system: NCI-H23 lung
[34] = system: SK-MEL-5 melanoma
[35] = system: SR leukemia
[36] = system: HL-60(TB) leukemia
[37] = system: SW-620 colon
[38] = system: SNB-78 CNS
[39] = system: NCI-H522 lung
[40] = system: CCRF-CEM leukemia
[41] = system: XF 498 CNS
[42] = system: TK-10 renal
[43] = system: COLO 205 colon
[44] = system: SK-OV-3 ovarian
[45] = system: 786-0 renal
[46] = system: HOP-18 NSCLC
[47] = system: M14 melanoma
[48] = system: LXFL 529 NSCLC
[49] = system: MDA-MB-435
[50] = system: U251 CNS
[51] = system: DLD-1 colon
[52] = system: OVCAR-3 ovarian
[53] = system: RXF 393 renal
[54] = system: M19-MEL melanoma
[55] = system: KM20L2 colon
[56] = system: OVCAR-8 ovarian
[57] = system: NCI-H226 lung
[58] = system: OVCAR-5 ovarian
[59] = system: HOP-92 NSCLC
[60] = system: HCT-116 colon
[61] = system: KM12 colon
[62] = system: HCT-15 colon
[63] = system: HOP-62 NSCLC

Q: Which results are given for `CCOCC(=O)N[C@H]1CCc2cc(OC)c(OC)c(OC)c2-c2ccc(SC)c(=O)cc21`?
A: TGI [1]: > 90.9 µM; TGI [2]: > 100 µM; TGI [3]: > 100 µM; TGI [4]: < 0.01 µM; TGI [5]: > 35.7 µM; TGI [6]: > 100 µM; TGI [7]: > 100 µM; TGI [8]: 2.31 µM; TGI [9]: 0.253 µM; TGI [10]: > 62.6 µM; TGI [11]: > 45.8 µM; TGI [12]: 69 µM; TGI [13]: > 100 µM; TGI [14]: > 100 µM; TGI [15]: 1.49 µM; TGI [16]: > 46.4 µM; TGI [17]: 0.398 µM; TGI [18]: > 100 µM; TGI [19]: > 100 µM; TGI [20]: > 100 µM; TGI [21]: > 100 µM; TGI [22]: > 100 µM; TGI [23]: > 100 µM; TGI [24]: > 100 µM; TGI [25]: 5.11 µM; TGI [26]: < 0.01 µM; TGI [27]: 12.5 µM; TGI [28]: 0.0582 µM; TGI [29]: < 0.01 µM; TGI [30]: > 25.3 µM; TGI [31]: > 51.4 µM; TGI [32]: > 100 µM; TGI [33]: 9.64 µM; TGI [34]: < 0.01 µM; TGI [35]: > 100 µM; TGI [36]: < 0.0347 µM; TGI [37]: > 100 µM; TGI [38]: > 100 µM; TGI [39]: < 0.01 µM; TGI [40]: > 70.2 µM; TGI [41]: 4.49 µM; TGI [42]: > 100 µM; TGI [43]: < 0.01 µM; TGI [44]: 0.398 µM; TGI [45]: > 88 µM; TGI [46]: > 100 µM; TGI [47]: > 100 µM; TGI [48]: > 100 µM; TGI [49]: < 0.01 µM; TGI [50]: > 76.8 µM; TGI [51]: > 100 µM; TGI [52]: < 0.0658 µM; TGI [53]: 2.33 µM; TGI [54]: > 100 µM; TGI [55]: < 0.01 µM; TGI [56]: 4.64 µM; TGI [57]: 0.398 µM; TGI [58]: > 100 µM; TGI [59]: > 100 µM; TGI [60]: 2.39 µM; TGI [61]: < 0.0631 µM; TGI [62]: > 18.1 µM; TGI [63]: > 100 µM
